Values of other authors as cited in patent US20110053874A1, “USE OF FLAVONOIDE COMPOUNDS FOR THE PROPHYLAXIS AND THERAPY OF ISCHAEMIC OR INFLAMMATORY HEART AND CARDIOVASCULAR DISEASES” (BOEHRINGER INGELHEIM INTERNATIONAL GMBH, priority 2008, published 2011).

Key:
[1] = in vivo
[2] = human, oral

Compound	absorption [1]	form present in the plasma after being taken orally and absorbed through the intestine [2]
O=c1c(O)c(-c2ccc(O)c(O)c2)oc2cc(O)cc(O)c12 [Quercetin]	only absorbed to a small extent	–
O=c1c(O[C@@H]2O[C@H](CO)[C@@H](O)[C@H](O)[C@H]2O)c(-c2ccc(O)c(O)c2)oc2cc(O)cc(O)c12 [quercetin glucoside, quercetin-3-O-β-D-glucoside]	–	almost completely in the form of their respective glucuronides
O=c1c(O[C@@H]2O[C@H](CO)[C@@H](O)[C@H](O)[C@H]2O)c(-c2ccc(O)cc2)oc2cc(O)cc(O)c12 [kaempferol glucoside, kaempferol-3-O-β-D-glucoside]	–	almost completely in the form of their respective glucuronides
